Measured values as given in ChEMBL document CHEMBL1125038, “Synthesis and antiinflammatory activity of cis- and trans-6,6a,7,8,9,10,10a,11-octahydro-11-oxodibenzo[b,e]thiepinacetic and -oxepinacetic acids” (J Med Chem, 1990).
Several values for one entry are separate records, joined by “and”; a condition that tells them apart may be missing. Equal values may be shown once.

Experiments:
Rattus norvegicus [1] = assay: Inhibition of carrageenan hind paw edema in rats after oral administration of a dose of 5 mg/kg; assay type: functional
Rattus norvegicus [2] = species on record: Rattus norvegicus; assay: The compound was tested for gastric ulcerogenicity in rats; ca. 57; assay type: functional, Stomach
Rattus norvegicus [3] = species on record: Rattus norvegicus; assay: Analgesic activity was determined by measuring the dose required to inhibit acetic acid induced writhing; assay type: functional
[4] = Safety index is the ratio of UD50 to ED50 in carrageenan hind paw edema; ca. 25; assay type: toxicity; conditions: read-out: Safety index
Rattus norvegicus [5] = assay: Antiinflammatory activity was determined against rat carrageenan hind paw edema, after oral administration; assay type: functional
Rattus norvegicus [6] = species on record: Rattus norvegicus; assay: The compound was tested for gastric ulcerogenicity in rats; assay type: functional, Stomach
[7] = The compound was tested for acute toxicity in mice after oral administration; assay type: organism-based; conditions: mouse, in vivo
[8] = Safety index is the ratio of UD50 to ED50 in carrageenan hind paw edema; assay type: toxicity; conditions: read-out: Safety index
Rattus norvegicus [9] = assay: Antiinflammatory activity was determined against rats carrageenan hind paw edema after oral administration; assay type: functional
Rattus norvegicus [10] = assay: Antiinflammatory activity was determined against rats carrageenan hind paw edema, after oral administration; ca. 40; assay type: functional
[11] = The compound was tested for acute toxicity in mice after oral administration; ca. 200; assay type: organism-based; conditions: mouse, in vivo
Rattus norvegicus [12] = species on record: Rattus norvegicus; assay: The compound was tested for gastric ulcerogenicity in rats; ca. 30; assay type: functional, Stomach
[13] = Safety index is the ratio of UD50 to ED50 in carrageenan hind paw edema; ca. 20; assay type: toxicity; conditions: read-out: Safety index
Rattus norvegicus [14] = assay: Antiinflammatory activity was determined against rat carrageenan hind paw edema after oral administration of a dose of 40 mg/kg
Rattus norvegicus [15] = species on record: Rattus norvegicus; assay: The compound was tested for gastric ulcerogenicity in rats; ca. 8; assay type: functional, Stomach

Work on `CC(C(=O)OCc1ccccc1)c1ccc2c(c1)SCC1CCCCC1C2=O` (centres undefined) yielded an inhibition in vivo at 5 mg/kg (Rattus norvegicus [1]) of 25.6%.

`CC(C(N)=O)c1ccc2c(c1)SCC1CCCCC1C2=O` (centres undefined) gave an inhibition in vivo at 5 mg/kg (Rattus norvegicus [1]) of 30.5%.

With `CCCCCCOC(=O)C(C)c1ccc2c(c1)SCC1CCCCC1C2=O` (centres undefined) the inhibition in vivo at 5 mg/kg (Rattus norvegicus [1]) was 28.3%.

For `CC(C(=O)OCC(=O)c1ccccc1)c1ccc2c(c1)SCC1CCCCC1C2=O` (centres undefined), the inhibition in vivo at 5 mg/kg (Rattus norvegicus [1]) was 26.6%.

`CC(C(=O)N(C)C)c1ccc2c(c1)SCC1CCCCC1C2=O` (centres undefined) showed an inhibition in vivo at 5 mg/kg (Rattus norvegicus [1]) of 2.7%.

In the case of `CCCCCOC(=O)C(C)c1ccc2c(c1)SCC1CCCCC1C2=O` (centres undefined), the inhibition in vivo at 5 mg/kg (Rattus norvegicus [1]) is reported as 22.1%.

`CC(C)OC(=O)C(C)c1ccc2c(c1)SCC1CCCCC1C2=O` (centres undefined) showed an inhibition in vivo at 5 mg/kg (Rattus norvegicus [1]) of 25.6%.

`CC(C(=O)OC1CCCCC1)c1ccc2c(c1)SCC1CCCCC1C2=O` (centres undefined) gave an inhibition in vivo at 5 mg/kg (Rattus norvegicus [1]) of 15.6%.

`CCOCCOC(=O)C(C)c1ccc2c(c1)SCC1CCCCC1C2=O` (centres undefined) showed an inhibition in vivo at 5 mg/kg (Rattus norvegicus [1]) of 34.6%.

Work on `CC(C(=O)OCCOCCO)c1ccc2c(c1)SCC1CCCCC1C2=O` (centres undefined) yielded an inhibition in vivo at 5 mg/kg (Rattus norvegicus [1]) of 28.1%.

`CC(C)COC(=O)C(C)c1ccc2c(c1)SCC1CCCCC1C2=O` (centres undefined) showed an inhibition in vivo at 5 mg/kg (Rattus norvegicus [1]) of 29.3%.

Work on `CCOC(=O)C(C)c1ccc2c(c1)SCC1CCCCC1C2=O` (centres undefined) yielded an inhibition in vivo at 5 mg/kg (Rattus norvegicus [1]) of 38.3%, a UD50 (Rattus norvegicus [2]) of 57 mg/kg and an ED50 (Rattus norvegicus [3]) of 0.31 mg/kg. For the same molecule, the selectivity ratio [4] was 25 and the ED50 (Rattus norvegicus [5]; Rattus norvegicus, po, read-out: ED50) was 2.24 mg/kg.

`CC(C(=O)Oc1ccccc1)c1ccc2c(c1)SCC1CCCCC1C2=O` (centres undefined) gave an inhibition in vivo at 5 mg/kg (Rattus norvegicus [1]) of 22%.

For `CC(C(=O)NCc1ccccc1)c1ccc2c(c1)SCC1CCCCC1C2=O` (centres undefined), the inhibition in vivo at 5 mg/kg (Rattus norvegicus [1]) was -5.5%.

For `CC(C(=O)N1CCCCC1)c1ccc2c(c1)SCC1CCCCC1C2=O` (centres undefined), the inhibition in vivo at 5 mg/kg (Rattus norvegicus [1]) was 5.3%.

Work on `CC(C(=O)NCCO)c1ccc2c(c1)SCC1CCCCC1C2=O` (centres undefined) yielded an inhibition in vivo at 5 mg/kg (Rattus norvegicus [1]) of 22.3%.

Molecule `CC(C(=O)OCc1cccnc1)c1ccc2c(c1)SCC1CCCCC1C2=O` (centres undefined) has an inhibition in vivo at 5 mg/kg (Rattus norvegicus [1]) of 29.9%.

Work on `CC(C(=O)NO)c1ccc2c(c1)SCC1CCCCC1C2=O` (centres undefined) yielded an inhibition in vivo at 5 mg/kg (Rattus norvegicus [1]) of 29.9%.

Molecule `CCCOC(=O)C(C)c1ccc2c(c1)SCC1CCCCC1C2=O` (centres undefined) has an inhibition in vivo at 5 mg/kg (Rattus norvegicus [1]) of 25.4%.

Molecule `CC(C(=O)OC/C=C/c1ccccc1)c1ccc2c(c1)SCC1CCCCC1C2=O` (centres undefined) has an inhibition in vivo at 5 mg/kg (Rattus norvegicus [1]) of 20.3%.

Molecule `CC(C(=O)OCCN1CCOCC1)c1ccc2c(c1)SCC1CCCCC1C2=O` (centres undefined) has an inhibition in vivo at 5 mg/kg (Rattus norvegicus [1]) of 22.2%.

`CC(C(=O)OCCc1ccccn1)c1ccc2c(c1)SCC1CCCCC1C2=O` (centres undefined) showed an inhibition in vivo at 5 mg/kg (Rattus norvegicus [1]) of 25.5%.

Molecule `CNC(=O)C(C)c1ccc2c(c1)SCC1CCCCC1C2=O` (centres undefined) has an inhibition in vivo at 5 mg/kg (Rattus norvegicus [1]) of 14.6%.

`CC(C(=O)N1CCN(C)CC1)c1ccc2c(c1)SCC1CCCCC1C2=O` (centres undefined) gave an inhibition in vivo at 5 mg/kg (Rattus norvegicus [1]) of 5.3%.

`CC(C(=O)NCC(=O)O)c1ccc2c(c1)SCC1CCCCC1C2=O` (centres undefined) gave an inhibition in vivo at 5 mg/kg (Rattus norvegicus [1]) of 29.7%.

In the case of `CC(C(=O)OCc1ccccn1)c1ccc2c(c1)SCC1CCCCC1C2=O` (centres undefined), the inhibition in vivo at 5 mg/kg (Rattus norvegicus [1]) is reported as 30.6%.

In the case of `CC(C(=O)N1CCOCC1)c1ccc2c(c1)SCC1CCCCC1C2=O` (centres undefined), the inhibition in vivo at 5 mg/kg (Rattus norvegicus [1]) is reported as 7.1%.

With `CCCCOC(=O)C(C)c1ccc2c(c1)SCC1CCCCC1C2=O` (centres undefined) the inhibition in vivo at 5 mg/kg (Rattus norvegicus [1]) was 26%.

`CC(C(=O)OCCc1ccccc1)c1ccc2c(c1)SCC1CCCCC1C2=O` (centres undefined) gave an inhibition in vivo at 5 mg/kg (Rattus norvegicus [1]) of 39.1%, a UD50 (Rattus norvegicus [6]) of over 124 mg/kg and an LD50 [7] of 644 mg/kg. For the same molecule, the ED50 (Rattus norvegicus [5]) was 3.53 mg/kg and 1.5 mg/kg and the selectivity ratio [8] was over 35.

Molecule `CC(C(=O)OCCCc1ccccc1)c1ccc2c(c1)SCC1CCCCC1C2=O` (centres undefined) has an inhibition in vivo at 5 mg/kg (Rattus norvegicus [1]) of 26%.

In the case of `CCOC(=O)COC(=O)C(C)c1ccc2c(c1)SCC1CCCCC1C2=O` (centres undefined), the inhibition in vivo at 5 mg/kg (Rattus norvegicus [1]) is reported as 20.2%.

For `COC(=O)C(C)c1ccc2c(c1)SCC1CCCCC1C2=O` (centres undefined), the inhibition in vivo at 5 mg/kg (Rattus norvegicus [1]) was 21.6%.

For `C=CCOC(=O)C(C)c1ccc2c(c1)SCC1CCCCC1C2=O` (centres undefined), the inhibition in vivo at 5 mg/kg (Rattus norvegicus [1]) was 33.5%.

With `O=C(O)Cc1ccc2c(c1)C(=O)[C@H]1CCCC[C@@H]1CO2` (relative stereo) the ED50 (Rattus norvegicus [9]) was over 40 mg/kg.

`O=C(O)Cc1ccc2c(c1)OC[C@H]1CCCC[C@H]1C2=O` (relative stereo) showed an ED50 (Rattus norvegicus [9]) of over 40 mg/kg.

For `O=C(O)Cc1ccc2c(c1)C(=O)[C@@H]1CCCC[C@@H]1CS2` (relative stereo), the ED50 (Rattus norvegicus [9]) was over 40 mg/kg.

Molecule `O=C(O)Cc1ccc2c(c1)SC[C@H]1CCCC[C@@H]1C2=O` (relative stereo) has an ED50 (Rattus norvegicus [9]) of 3.24 mg/kg.

`O=C(O)Cc1ccc2c(c1)C(=O)[C@@H]1CCCC[C@@H]1CO2` (relative stereo) gave an ED50 (Rattus norvegicus [9]) of over 40 mg/kg.

`O=C(O)Cc1ccc2c(c1)C(=O)[C@H]1CCCC[C@@H]1CS2` (relative stereo) gave an ED50 (Rattus norvegicus [9]) of over 40 mg/kg.

For `O=C(O)Cc1ccc2c(c1)SC[C@H]1CCCC[C@H]1C2=O` (relative stereo), the ED50 (Rattus norvegicus [9]) was over 40 mg/kg.

For `CC(C(=O)O)c1ccc2c(c1)C(=O)[C@H]1CCCC[C@@H]1CS2` (relative stereo), the ED50 (Rattus norvegicus [10]) was 40 mg/kg.

`O=C(O)Cc1ccc2c(c1)OC[C@H]1CCCC[C@@H]1C2=O` (relative stereo) showed an ED50 (Rattus norvegicus [9]) of 22.1 mg/kg.

With `CC(C(=O)O)c1ccc2c(c1)OC[C@H]1CCCC[C@@H]1C2=O` (relative stereo) the ED50 (Rattus norvegicus [9]) was 1.52 mg/kg.

Molecule `CC(C(=O)O)c1ccc2c(c1)OC[C@H]1CCCC[C@H]1C2=O` (relative stereo) has an ED50 (Rattus norvegicus [9]) of over 40 mg/kg.

For `CC(C(=O)O)c1ccc2c(c1)C(=O)[C@@H]1CCCC[C@@H]1CS2` (relative stereo), the ED50 (Rattus norvegicus [9]) was over 40 mg/kg.

`CC(C(=O)O)c1ccc2c(c1)C(=O)[C@@H]1CCCC[C@@H]1CO2` (relative stereo) gave an ED50 (Rattus norvegicus [9]) of over 40 mg/kg.

For `CC(C(=O)O)c1ccc2c(c1)SC[C@H]1CCCC[C@@H]1C2=O` (relative stereo), the ED50 (Rattus norvegicus [3]) was 0.39 mg/kg, the LD50 [11] was 200 mg/kg and the UD50 (Rattus norvegicus [12]) was 30 mg/kg. It also gave an ED50 (Rattus norvegicus [9]) of 1.53 mg/kg and a selectivity ratio [13] of 20.

For `CC(C(=O)O)c1ccc2c(c1)C(=O)[C@H]1CCCC[C@@H]1CO2` (relative stereo), the ED50 (Rattus norvegicus [9]) was over 40 mg/kg.

With `CC(C(=O)O)c1ccc2c(c1)SC[C@H]1CCCC[C@H]1C2=O` (relative stereo) the ED50 (Rattus norvegicus [9]) was over 40 mg/kg.

Molecule `CC(C(=O)O)c1ccc2c(c1)SC[C@H]1CCCC[C@@H]1C2=O` (relative stereo; form 1) has an ED50 (Rattus norvegicus [14]) of 1.89 mg/kg.

`CC(C(=O)O)c1ccc2c(c1)SC[C@H]1CCCC[C@@H]1C2=O` (relative stereo; form 2) showed an ED50 (Rattus norvegicus [14]) of 37.1 mg/kg.

For `COc1ccc2c(c1)c(CC(=O)O)c(C)n2C(=O)c1ccc(Cl)cc1` [INDOMETHACIN], the inhibition in vivo at 5 mg/kg (Rattus norvegicus [1]) was 36.3%, the ED50 (Rattus norvegicus [3]) was 0.44 mg/kg and the UD50 (Rattus norvegicus [15]) was 8 mg/kg. The LD50 [7] was 23 mg/kg, the ED50 (Rattus norvegicus [9]) was 3.3 mg/kg and the selectivity ratio [8] was 2.4.
